Source: publication PMC4468608, “A distinct p53 target gene set predicts for response to the selective p53–HDM2 inhibitor NVP-CGM097” (eLife, 2015)
Like-named read-outs stand apart in the source and are kept apart here.

System: cell lines from the Cancer Cell Line Encyclopedia (CCLE)
Assay: High-throughput cell viability assay, CCLE cell line panel (n = 356)
Format: cell-based, human
Conditions: for IC50: Homo sapiens
Method: Cell lines were partitioned into sensitive and insensitive groups based on compound potency (IC50). […] All other cell lines were obtained from ATCC (American Type Culture Collection), DSMZ (Deutsche Sammlung von Mikroorganismen und Zellkulturen), and HSRRB (Health Science Research Resources Bank) and cultured in RPMI or Dulbecco's modified Eagle's medium plus 10% FBS (Invitrogen, Carlsbad, CA) at 37°C, 5% CO2.

## COc1cc2c(cc1OC(C)C)[C@H](c1ccc(Cl)cc1)N(c1ccc(N(C)C[C@H]3CC[C@H](N4CCNC(=O)C4)CC3)cc1)C(=O)C2 [NVP-CFC218]
read-out: NVP- CFC218 IC50 (µM), cell line MEL-HO, skin, TP53 WT
  IC50: > 8 µM
read-out: NVP- CFC218 IC50 (µM), cell line NCI-H1341, lung, TP53 WT
  IC50: > 8 µM
read-out: NVP- CFC218 IC50 (µM), cell line PE/CA-PJ41 (clone D2), upper_aerodigestive_tract, TP53 MUT
  IC50: > 8 µM
read-out: NVP- CFC218 IC50 (µM), cell line PEER, haem._and_lymphoid_tissue, TP53 MUT
  IC50: > 8 µM
read-out: NVP- CFC218 IC50 (µM), cell line SNG-M, endometrium, TP53 WT
  IC50: > 8 µM
read-out: NVP- CFC218 IC50 (µM), cell line Sq-1, lung, TP53 WT
  IC50: > 8 µM
read-out: NVP- CFC218 IC50 (µM), cell line TE-9, oesophagus, TP53 MUT
  IC50: > 8 µM
read-out: NVP- CFC218 IC50 (µM), cell line WM-88, skin, TP53 WT
  IC50: > 8 µM
Hs 729, TP53 MUT
  Amax: 7.88%
  sensitivity call: insensitive (Sensitivity call for each compound was applied according to a cut-off of 4 µM for IC50 and -50% for Amax)
IGROV1, TP53 MUT
  Amax: -1.82%
  sensitivity call: insensitive (Sensitivity call for each compound was applied according to a cut-off of 4 µM for IC50 and -50% for Amax)
J82, TP53 MUT
  Amax: -2.55%
  sensitivity call: insensitive (Sensitivity call for each compound was applied according to a cut-off of 4 µM for IC50 and -50% for Amax)
JHH-7, TP53 MUT
  Amax: -2.28%
  sensitivity call: insensitive (Sensitivity call for each compound was applied according to a cut-off of 4 µM for IC50 and -50% for Amax)
JHUEM-2, TP53 WT
  Amax: -91.79%
  sensitivity call: sensitive (Sensitivity call for each compound was applied according to a cut-off of 4 µM for IC50 and -50% for Amax)
JMSU-1, TP53 MUT
  Amax: 2.12%
  sensitivity call: insensitive (Sensitivity call for each compound was applied according to a cut-off of 4 µM for IC50 and -50% for Amax)
KE-39, TP53 MUT
  Amax: -5.22%
  sensitivity call: insensitive (Sensitivity call for each compound was applied according to a cut-off of 4 µM for IC50 and -50% for Amax)
KE-97, TP53 WT
  Amax: -79.42%
  sensitivity call: sensitive (Sensitivity call for each compound was applied according to a cut-off of 4 µM for IC50 and -50% for Amax)
KMM-1, TP53 MUT
  Amax: -27.14%
  sensitivity call: insensitive (Sensitivity call for each compound was applied according to a cut-off of 4 µM for IC50 and -50% for Amax)
KNS-60, TP53 MUT
  Amax: -1.47%
  sensitivity call: insensitive (Sensitivity call for each compound was applied according to a cut-off of 4 µM for IC50 and -50% for Amax)
KP-N-SI9s, TP53 WT
  Amax: -92.10%
  sensitivity call: sensitive (Sensitivity call for each compound was applied according to a cut-off of 4 µM for IC50 and -50% for Amax)
KU812, TP53 MUT
  Amax: 19.95%
  sensitivity call: insensitive (Sensitivity call for each compound was applied according to a cut-off of 4 µM for IC50 and -50% for Amax)
KYSE-30, TP53 MUT
  Amax: -3.88%
  sensitivity call: insensitive (Sensitivity call for each compound was applied according to a cut-off of 4 µM for IC50 and -50% for Amax)
KYSE-70, TP53 MUT
  Amax: -0.20%
  sensitivity call: insensitive (Sensitivity call for each compound was applied according to a cut-off of 4 µM for IC50 and -50% for Amax)
KYSE-140, TP53 MUT
  Amax: -19.56%
  sensitivity call: insensitive (Sensitivity call for each compound was applied according to a cut-off of 4 µM for IC50 and -50% for Amax)
KYSE-180, TP53 MUT
  Amax: -30.58%
  sensitivity call: insensitive (Sensitivity call for each compound was applied according to a cut-off of 4 µM for IC50 and -50% for Amax)
LCLC-103H, TP53 MUT
  Amax: -1.79%
  sensitivity call: insensitive (Sensitivity call for each compound was applied according to a cut-off of 4 µM for IC50 and -50% for Amax)
LK-2, TP53 MUT
  Amax: -3.65%
  sensitivity call: insensitive (Sensitivity call for each compound was applied according to a cut-off of 4 µM for IC50 and -50% for Amax)
LN-18, TP53 MUT
  Amax: -16.71%
  sensitivity call: insensitive (Sensitivity call for each compound was applied according to a cut-off of 4 µM for IC50 and -50% for Amax)
LOU-NH91, TP53 MUT
  Amax: 2.89%
  sensitivity call: insensitive (Sensitivity call for each compound was applied according to a cut-off of 4 µM for IC50 and -50% for Amax)
LOX IMVI, TP53 WT
  Amax: -48.25%
  sensitivity call: insensitive (Sensitivity call for each compound was applied according to a cut-off of 4 µM for IC50 and -50% for Amax)
LU65, TP53 MUT
  Amax: -1.36%
  sensitivity call: insensitive (Sensitivity call for each compound was applied according to a cut-off of 4 µM for IC50 and -50% for Amax)
MEG-01, TP53 MUT
  Amax: 0.30%
  sensitivity call: insensitive (Sensitivity call for each compound was applied according to a cut-off of 4 µM for IC50 and -50% for Amax)
MKN74, TP53 MUT
  Amax: 2.29%
  sensitivity call: insensitive (Sensitivity call for each compound was applied according to a cut-off of 4 µM for IC50 and -50% for Amax)
MOG-G-UVW, TP53 WT
  Amax: 3.49%
  sensitivity call: insensitive (Sensitivity call for each compound was applied according to a cut-off of 4 µM for IC50 and -50% for Amax)
MOLM-16, TP53 MUT
  Amax: 12.84%
  sensitivity call: insensitive (Sensitivity call for each compound was applied according to a cut-off of 4 µM for IC50 and -50% for Amax)
MeWo, TP53 MUT
  Amax: 0.14%
  sensitivity call: insensitive (Sensitivity call for each compound was applied according to a cut-off of 4 µM for IC50 and -50% for Amax)
NCI-H23, TP53 MUT
  Amax: -1.09%
  sensitivity call: insensitive (Sensitivity call for each compound was applied according to a cut-off of 4 µM for IC50 and -50% for Amax)
NCI-H1355, TP53 MUT
  Amax: -28.98%
  sensitivity call: insensitive (Sensitivity call for each compound was applied according to a cut-off of 4 µM for IC50 and -50% for Amax)
NCI-H1648, TP53 MUT
  Amax: -2.43%
  sensitivity call: insensitive (Sensitivity call for each compound was applied according to a cut-off of 4 µM for IC50 and -50% for Amax)
NCI-H1651, TP53 MUT
  Amax: -2.57%
  sensitivity call: insensitive (Sensitivity call for each compound was applied according to a cut-off of 4 µM for IC50 and -50% for Amax)
NCI-H2009, TP53 MUT
  Amax: -6.28%
  sensitivity call: insensitive (Sensitivity call for each compound was applied according to a cut-off of 4 µM for IC50 and -50% for Amax)
NCI-H2110, TP53 MUT
  Amax: -4.78%
  sensitivity call: insensitive (Sensitivity call for each compound was applied according to a cut-off of 4 µM for IC50 and -50% for Amax)
NCI-H2122, TP53 MUT
  Amax: -89.07%
  sensitivity call: sensitive (Sensitivity call for each compound was applied according to a cut-off of 4 µM for IC50 and -50% for Amax)
NCI-H2444, TP53 MUT
  Amax: -4.64%
  sensitivity call: insensitive (Sensitivity call for each compound was applied according to a cut-off of 4 µM for IC50 and -50% for Amax)
NCI-H2452, TP53 WT
  Amax: -0.68%
  sensitivity call: insensitive (Sensitivity call for each compound was applied according to a cut-off of 4 µM for IC50 and -50% for Amax)
NCO2, TP53 MUT
  Amax: -1.52%
  sensitivity call: insensitive (Sensitivity call for each compound was applied according to a cut-off of 4 µM for IC50 and -50% for Amax)
OCI-M1, TP53 MUT
  Amax: -1.98%
  sensitivity call: insensitive (Sensitivity call for each compound was applied according to a cut-off of 4 µM for IC50 and -50% for Amax)
OE33, TP53 MUT
  Amax: -2.82%
  sensitivity call: insensitive (Sensitivity call for each compound was applied according to a cut-off of 4 µM for IC50 and -50% for Amax)
